Counter-ions that a name gives are not always drawn.
Legend:
[1] = biological target: T1, recombinant human liver glycogen phosphorylase (Homo sapiens, UniProt P06737); assay: Measuring liver glycogen phosphorylase activity (forward reaction system, NADPH absorbance at 340 nm); assay type: biochemical
T1 construct: made in house; host or cells: Sf9 insect cells (crude homogenate, diluted, used as the enzyme solution)
T1 sequence (P06737 1-847): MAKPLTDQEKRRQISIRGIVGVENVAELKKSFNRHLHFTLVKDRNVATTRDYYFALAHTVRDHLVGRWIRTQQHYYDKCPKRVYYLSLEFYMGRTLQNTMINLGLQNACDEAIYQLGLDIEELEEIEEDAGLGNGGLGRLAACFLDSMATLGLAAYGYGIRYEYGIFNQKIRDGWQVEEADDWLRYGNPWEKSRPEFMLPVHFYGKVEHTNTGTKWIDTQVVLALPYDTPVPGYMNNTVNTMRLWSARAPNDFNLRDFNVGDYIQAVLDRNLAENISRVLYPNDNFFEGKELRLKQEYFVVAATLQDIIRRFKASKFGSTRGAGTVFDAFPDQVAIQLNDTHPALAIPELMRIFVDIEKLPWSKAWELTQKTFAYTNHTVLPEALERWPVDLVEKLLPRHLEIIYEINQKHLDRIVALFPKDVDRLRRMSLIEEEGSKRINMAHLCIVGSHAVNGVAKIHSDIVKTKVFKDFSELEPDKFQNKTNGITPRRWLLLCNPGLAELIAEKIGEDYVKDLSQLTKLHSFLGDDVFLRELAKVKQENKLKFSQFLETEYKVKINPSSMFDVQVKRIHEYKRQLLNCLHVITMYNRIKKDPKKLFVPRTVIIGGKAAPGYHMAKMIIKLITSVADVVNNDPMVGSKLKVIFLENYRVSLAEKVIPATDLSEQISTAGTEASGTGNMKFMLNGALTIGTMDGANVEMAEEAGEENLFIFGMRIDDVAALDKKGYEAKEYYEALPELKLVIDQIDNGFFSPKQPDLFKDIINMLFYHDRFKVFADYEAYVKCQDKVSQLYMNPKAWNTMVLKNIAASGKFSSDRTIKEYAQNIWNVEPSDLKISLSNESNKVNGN
Outline: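 Sf9 homogenate expressing the enzyme, in pH 6.8 BES/EDTA, with glycogen and phosphate substrate plus glucose, coupled via phosphoglucomutase/G6PDH to NADPH formation. A340 change over 75 min at room temperature, blank-corrected; IC50 linearly interpolated between the two concentrations bracketing 50% inhibition versus 1% DMSO control.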

db/db mice = assay: Measuring blood plasma glucose concentration in db/db mice (hypoglycemic effect); assay type: in vivo; design: key: ++: compounds exhibiting statistically significant hypoglycemic effect at a dose of 10 mg/kg or less; +: compounds exhibiting not significant but obvious hypoglycemic effect at a dose of 10 mg/kg; details: for vivo (hypoglycemic effect in db/db mice): db/db mice fasted 4 h, oral administration, plasma glucose 1 and 3 hours after administration, dose 10 mg/kg or less, Dunnett test vs solvent; for vivo (hypoglycemic effect): db/db mice, blood plasma glucose, dose of 10 mg/kg or less
Outline: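 db/db mice aged 9-18 weeks, grouped 5 or 8 per group matched on plasma glucose, fasted 4 h, then dosed orally with compound or 0.5% methylcellulose vehicle. Plasma glucose measured 1 and 3 h post-dose; each timepoint compared against vehicle by Dunnett test.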

[2] = enzyme inhibitory activity with respect to liver glycogen phosphorylase, class symbols
[3] = human liver glycogen phosphorylase, class symbol

IC50 [1, 2] [nM]	IC50 [1, 3] [nM]	Structure (SMILES)	vivo (hypoglycemic effect in db/db mice) (db/db mice)	vivo (hypoglycemic effect) (db/db mice)
–	< 100	Cc1cc(F)c(F)cc1C(=O)Nc1cc(C(=O)NCc2cccnc2)n[nH]1 [Example 7-10]	–	++
< 100	–	Cc1ccccc1CNC(=O)c1cc(NC(=O)c2cc(F)c(F)cc2Cl)[nH]n1 [Example 3-32]	+	–
–	< 100	Cl.Nc1cccc(F)c1CNC(=O)c1cc(NC(=O)c2cc(F)c(F)cc2Cl)[nH]n1 [Example 6-39]	–	+
< 100	–	CCN(C(=O)c1cc(NC(=O)c2cc(F)c(F)cc2Cl)[nH]n1)c1ccccc1 [Example 3-11]	+	–
< 100	–	O=C(NCc1cccs1)c1cc(NC(=O)c2cc(F)c(F)cc2Cl)[nH]n1 [Example 3-26]	+	–
< 100	–	Cl.O=C(NCc1ccc(N2CCOCC2)nc1)c1cc(NC(=O)c2cc(F)c(F)cc2Cl)[nH]n1 [Example 5-25]	++	–
< 100	–	COCCN(C(=O)c1cc(NC(=O)c2cc(F)c(F)cc2Cl)[nH]n1)c1ccc(C(=O)O)cc1 [Example 4-48]	++	–
< 100	–	CCOC(=O)CN(C(=O)c1cc(NC(=O)c2cc(F)c(F)cc2Cl)[nH]n1)c1ccccc1 [Example 4-4]	+	–
< 100	–	CN(C)c1ccc(CNC(=O)c2cc(NC(=O)c3cc(F)c(F)cc3Cl)[nH]n2)cc1 [Example 3-24]	+	–

More lines, now with the values behind:

Structure (SMILES)	IC50 [1, 2] [nM]	IC50 [1, 3] [nM]	vivo (hypoglycemic effect in db/db mice) (db/db mice)	vivo (hypoglycemic effect) (db/db mice)
Cc1cccc(CNC(=O)c2cc(NC(=O)c3cc(F)c(F)cc3Cl)[nH]n2)n1 [Example 2-11]	< 100	–	+	–
CCOc1ccc(CNC(=O)c2cc(NC(=O)c3cc(F)c(F)cc3Cl)[nH]n2)cn1 [Example 1-37]	< 100	–	+	–
Cc1noc(C)c1CNC(=O)c1cc(NC(=O)c2cc(F)c(F)cc2Cl)[nH]n1 [Example 1-46]	< 100	–	++	–
O=C(NCc1nc2ccccc2[nH]1)c1cc(NC(=O)c2cc(F)c(F)cc2Cl)[nH]n1 [Example 1-42]	< 100	–	+	–
CCCN(C(=O)c1cc(NC(=O)c2cc(F)c(F)cc2Cl)[nH]n1)C1CCN(C(=O)C(=O)O)CC1 [Example 1-123]	< 100	–	+	–
Cc1cccc(C)c1CNC(=O)c1cc(NC(=O)c2cc(F)c(F)cc2Cl)[nH]n1 [Example 1-40]	< 100	–	+	–
Cc1cccnc1CNC(=O)c1cc(NC(=O)c2cc(F)c(F)cc2Cl)[nH]n1 [Example 2-8]	< 100	–	+	–
O=C(O)c1ccc(CNC(=O)c2cc(NC(=O)c3cc(F)c(F)cc3Cl)[nH]n2)cc1 [Example 1-73]	< 100	–	+	–
CC(C)Oc1ccc(CNC(=O)c2cc(NC(=O)c3cc(F)c(F)cc3Cl)[nH]n2)cn1 [Example 1-31]	< 100	–	+	–
CCN(C(=O)c1cc(NC(=O)c2cc(F)c(F)cc2Cl)[nH]n1)C1CCCCC1 [Example 1-80]	< 100	–	+	–
O=C(NCc1cccc(F)c1F)c1cc(NC(=O)c2cc(F)c(F)cc2Cl)[nH]n1 [Example 1-18]	< 100	–	+	–
O=C(NCc1ccc(F)cc1)c1cc(NC(=O)c2cc(F)c(F)cc2Cl)[nH]n1 [Example 1-70]	< 100	–	++	–
O=C(NCc1ccc(F)nc1)c1cc(NC(=O)c2cc(F)c(F)cc2Cl)[nH]n1 [Example 2-13]	< 100	–	+	–
Cc1ccnc(C)c1CNC(=O)c1cc(NC(=O)c2cc(F)c(F)cc2Cl)[nH]n1 [Example 1-3-1, 5-(2-chloro-4,5-difluoro-benzoylamino)-1H-pyrazole-3-carboxylic acid (2,4-dimethyl-pyridin-3-ylmethyl)-amide dihydrochloride]	< 100	–	++	–

Reference: US20070032529A1, “Pyrazole compounds and their use as antidiabetes agents” (Japan Tobacco Inc., priority 2005, published 2007)
